Laboratory results from patent US20210308144A1 (priority 2021, published 2021).
Like-named read-outs stand apart in the source and are kept apart here.

Legend:
[1] = system: BJ (human fibriblast) cell line; assay: Cytotoxicity against BJ (human fibroblast) cell line
[2] = biological target: T1, human aromatase enzyme (human placental microsomes) (Homo sapiens, UniProt P11511); assay: Human placental aromatase inhibition assay; assay type: biochemical
T1 construct: evaluated against human placental microsomes (aromatase enzyme); from tissue; host or cells: human placenta (microsomes)
T1 sequence (P11511 1-503): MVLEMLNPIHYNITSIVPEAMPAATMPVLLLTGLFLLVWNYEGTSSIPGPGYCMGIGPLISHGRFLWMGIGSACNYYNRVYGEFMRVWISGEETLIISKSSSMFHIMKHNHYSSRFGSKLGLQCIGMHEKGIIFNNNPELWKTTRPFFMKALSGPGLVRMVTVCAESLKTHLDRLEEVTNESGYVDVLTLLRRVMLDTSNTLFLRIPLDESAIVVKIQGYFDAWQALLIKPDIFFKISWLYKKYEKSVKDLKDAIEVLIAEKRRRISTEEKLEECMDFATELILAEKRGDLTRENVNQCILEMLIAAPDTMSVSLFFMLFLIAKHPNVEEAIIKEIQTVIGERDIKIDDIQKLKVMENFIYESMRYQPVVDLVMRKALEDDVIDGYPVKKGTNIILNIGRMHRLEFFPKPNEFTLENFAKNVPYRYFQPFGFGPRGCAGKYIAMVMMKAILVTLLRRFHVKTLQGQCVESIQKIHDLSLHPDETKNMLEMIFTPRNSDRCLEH

[3] = human placental microsomes, testosterone to 17β-estradiol conversion, UPLC, read-out: IC50 against human aromatase

In the case of `C=C1C[C@@H]2[C@H]([C@H](O)C[C@]3(C)[C@@H](O)CC[C@@H]23)[C@@]2(C)C=CC(=O)C=C12` [Compound 8, 11α,17β-dihydroxy-6-methylene-androsta-1,4-diene-3-one], the “cytotoxicity against BJ cell line” value [1] is reported as “non-cytotoxic” and the IC50 [2] is reported as 12.8 ± 0.844 µM.
`CC1=CC(=O)C=C2CC[C@@H]3[C@H](CC[C@]4(C)C(=O)CC[C@@H]34)[C@@]12C` [Compound 1, atamestane, reference compound] was tested, and the IC50 [2, 3] was 0.0138 ± 0.0002 µM.
With `CC1=CC(=O)C=C2CC[C@@H]3[C@H](CC[C@]4(C)C(=O)CC[C@@]34O)[C@@]12C` [Compound 2, 14α-hydroxy-1-methylandrosta-1,4-diene-3,17-dione] the “cytotoxicity against BJ cell line” value [1] was “non-cytotoxic” and the IC50 [2, 3] was 0.0097 ± 0.00072 µM.
In the case of `CC1=C[C@@]2(C)C(=CC1=O)CC[C@H]1[C@@H]3CC[C@H](O)[C@@]3(C)[C@H](O)C[C@@H]12` [Compound 4, 2-methylandrosta-12β,17β-dihydroxy-1,4-diene-3-one], the “cytotoxicity against BJ cell line” value [1] is reported as “non-cytotoxic” and the IC50 [2, 3] is reported as 0.00423 ± 0.000133 µM.
`CCCCCCC(=O)O[C@H]1CC[C@H]2[C@@H]3CC[C@H]4CC(=O)[C@H](C)C[C@]4(C)[C@H]3CC[C@]12C` [Compound 3, drostanolone enanthate, reference compound] gave an IC50 [2, 3] of 0.0064 ± 6e-05 µM.
In the case of `C[C@@H]1C[C@@]2(C)[C@@H](CC[C@H]3[C@@H]4CC[C@H](O)[C@@]4(C)CC[C@@]32O)CC1=O` [Compound 5, 2α-methyl-9α,17β-dihydroxy-5α-androstan-3-one], the “cytotoxicity against BJ cell line” value [1] is reported as “non-cytotoxic” and the IC50 [2, 3] is reported as 0.793 ± 0.0299 µM.
